In experiment [1] the test system is Cricetinae gen. sp. Briefly: In vivo activity to reduce liver cholesterol esters (hamster) at 50 mpk. Format: functional, Cricetulus griseus.
The target of experiment [2] is T1, Sterol O-acyltransferase 1 (Rattus norvegicus) (UniProt O70536).
T1 sequence (whole entry): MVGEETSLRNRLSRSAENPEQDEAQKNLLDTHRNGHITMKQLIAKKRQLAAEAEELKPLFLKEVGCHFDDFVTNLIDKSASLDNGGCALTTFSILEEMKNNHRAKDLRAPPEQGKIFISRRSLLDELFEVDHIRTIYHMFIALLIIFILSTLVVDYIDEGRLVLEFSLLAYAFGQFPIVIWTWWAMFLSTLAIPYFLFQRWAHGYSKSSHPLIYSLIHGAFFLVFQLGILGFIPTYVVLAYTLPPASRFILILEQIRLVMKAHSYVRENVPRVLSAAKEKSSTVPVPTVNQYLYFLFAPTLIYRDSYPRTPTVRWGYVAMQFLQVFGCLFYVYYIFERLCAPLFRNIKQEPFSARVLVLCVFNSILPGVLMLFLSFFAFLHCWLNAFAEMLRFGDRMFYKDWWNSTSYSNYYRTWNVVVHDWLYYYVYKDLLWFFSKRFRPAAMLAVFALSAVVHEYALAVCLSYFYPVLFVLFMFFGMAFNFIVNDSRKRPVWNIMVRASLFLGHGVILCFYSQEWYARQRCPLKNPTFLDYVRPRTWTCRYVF
Briefly: In vitro inhibitory activity against acyl-coenzyme A:cholesterol acyltransferase 1 from rat hepatic microsomes at 10 uM.

The target of experiment [3] is T2, Sterol O-acyltransferase 1 (Rattus norvegicus, UniProt O70536).
T2 sequence (O70536 whole entry): T1 sequence (whole entry)
Briefly: In vitro inhibitory activity against acyl-coenzyme A:cholesterol acyltransferase 1 from rat hepatic microsomes.

Experiment [4] deals with T2, Sterol O-acyltransferase 1. Briefly: (§1) In vitro inhibitory activity against Acyl coenzyme A:cholesterol acyltransferase 1 from rat hepatic microsomes at 10 uM.
For experiment [5], the system named is Cricetinae gen. sp. Briefly: In vivo activity to reduce liver cholesterol esters (hamster) at 5 mg/kg/day. Format: functional, Cricetulus griseus.
Experiment [6] concerns Cricetinae gen. sp. Kind of experiment: In vivo activity to reduce liver cholesterol esters (hamster) at 1 mg/kg/day. The experiment is classed as functional, Cricetulus griseus.
Experiment [7] addresses T1, Sterol O-acyltransferase 1 (Rattus norvegicus). The experiment is described as §1.

This is an account of results in ChEMBL document CHEMBL1129040, “Inhibitors of acyl CoA:cholesterol acyltransferase” (J Med Chem, 1996).

A word on the inhibition: it is how much of the control response was suppressed. Broadly, the IC50 is the concentration at which inhibition is half-maximal. A higher IC50 goes with weaker potency. In the case of `O=C(N[C@H]1c2cc(O)ccc2CC[C@@H]1c1ccccc1)C(c1ccccc1)c1ccccc1`, the Reduction in the experiment with Cricetinae gen. sp. [1] is 78%. For the same compound, in experiment [2], the inhibition came out at 94%. In addition, inhibition in experiment [3] was half-maximal at 1300 nM (IC50).

`O=C(NC(Cc1ccccc1)c1cccc(O)c1)C(c1ccccc1)c1ccccc1` (stereo not given) displayed a Reduction with Cricetinae gen. sp. [1] of 19%.

In turn, `O=C(N[C@@H]1c2ccccc2CC[C@@H]1c1ccc(O)cc1)C(c1ccccc1)c1ccccc1` had a Reduction in the experiment on Cricetinae gen. sp. [1] of 16%. In experiment [2], this compound returned an inhibition of 91%. In addition, inhibition in experiment [3] was half-maximal at 350 nM (IC50).

On to `COc1ccc(CC(NC(=O)C(c2ccccc2)c2ccccc2)c2ccccc2)cc1` (stereo not given), for which, in the experiment on Cricetinae gen. sp. [1], the Reduction is 65%. For the same compound, the inhibition in experiment [2] worked out at 92%.

Compound `COc1cccc([C@H]2CCc3ccccc3[C@@H]2NC(=O)C(c2ccccc2)c2ccccc2)c1` yielded a Reduction in the experiment with Cricetinae gen. sp. [1] of 0%.

In turn, `O=C(N[C@@H]1c2ccccc2OC[C@@H]1c1ccc(O)cc1)C(c1ccccc1)c1ccccc1` gave a Reduction with Cricetinae gen. sp. [1] of 0%.

`O=C(N[C@H]1c2ccccc2C[C@@H]1c1ccc(O)cc1)C(c1ccccc1)c1ccccc1` registered a Reduction in the experiment on Cricetinae gen. sp. [1] of 52%. Besides, the inhibition in experiment [2] is 99%. The compound also yielded an IC50 in experiment [3] of 230 nM.

In the experiment on Cricetinae gen. sp. [1], `O=C(N[C@@H]1c2ccccc2CC[C@@H]1c1cccc(O)c1)C(c1ccccc1)c1ccccc1` had a Reduction of 0%. The same compound showed an inhibition in experiment [2] of 77%. Moreover, the half-maximal inhibitory concentration (IC50) in experiment [3] came to 1800 nM.

In the case of `COc1ccc(C(Cc2ccccc2)NC(=O)C(c2ccccc2)c2ccccc2)cc1` (stereo not given), the Reduction in the experiment with Cricetinae gen. sp. [1] turned out to be 69%. In experiment [2], this compound had an inhibition of 88%.

As to `O=C(N[C@@H]1c2ccccc2CC[C@@H]1c1ccncc1)C(c1ccccc1)c1ccccc1`, in the experiment with Cricetinae gen. sp. [1], the Reduction is recorded as 39%.

With `COc1ccccc1[C@H]1CCc2ccccc2[C@H]1NC(=O)C(c1ccccc1)c1ccccc1` (stereo in doubt; trans), the Reduction in the experiment on Cricetinae gen. sp. [1] is 0%.

In the experiment with Cricetinae gen. sp. [1], `O=C(N[C@@H]1CCCC[C@@H]1c1ccc(O)cc1)C(c1ccccc1)c1ccccc1` came in with a Reduction of 0%. In experiment [2], this compound came in with an inhibition of 80%. The compound further had an IC50 in experiment [3] of 3000 nM.

In the case of `O=C(N[C@H]1c2ccccc2OC[C@@H]1c1ccc(O)cc1)C(c1ccccc1)c1ccccc1`, the Reduction in the experiment on Cricetinae gen. sp. [1] was determined as 0%.

On to `O=C(NC(Cc1ccc(O)cc1)c1ccc(O)cc1)C(c1ccccc1)c1ccccc1` (stereo not given), for which, in the experiment on Cricetinae gen. sp. [1], the Reduction stood at 40%.

Regarding `O=C(NC(Cc1ccc(O)cc1)c1ccccc1)C(c1ccccc1)c1ccccc1` (stereo not given), the inhibition in experiment [2] was found to be 92%.

For the compound `COc1ccc2c(c1)[C@H](NC(=O)C(c1ccccc1)c1ccccc1)[C@@H](c1ccc(O)cc1)CC2`, the Reduction with Cricetinae gen. sp. [1] is reported as 97%. The compound also had an inhibition in experiment [2] of 98%. For the same compound, it took 400 nM to reach half-maximal inhibition in experiment [3] (IC50).

As to `COc1ccc2c(c1)C(NC(=O)C(c1ccccc1)c1ccccc1)CCC2` (stereo not given), the Reduction in the experiment on Cricetinae gen. sp. [1] is given as 0%.

With `O=C(N[C@H]1c2cccc(O)c2CC[C@@H]1c1ccccc1)C(c1ccccc1)c1ccccc1`, the Reduction with Cricetinae gen. sp. [1] is listed as 0%.

`O=C(NC1c2ccccc2CC1c1ccc(O)cc1)C(c1ccccc1)c1ccccc1` (racemic) displayed an IC50 in experiment [4] of 100 nM. Moreover, the values for the Reduction in the experiment with Cricetinae gen. sp. [5] and in the experiment with Cricetinae gen. sp. [6] were 63% and 27%, respectively.

Regarding `COc1ccc([C@H]2CCc3ccccc3[C@H]2NC(=O)C(c2ccccc2)c2ccccc2)cc1`, the Reduction in the experiment with Cricetinae gen. sp. [1] is on record as 0%.

Consider `COc1ccc(CC(NC(=O)C(c2ccccc2)c2ccccc2)c2ccc(OC)cc2)cc1` (stereo not given), for which the Reduction in the experiment on Cricetinae gen. sp. [1] was 32%. In addition, in experiment [2], the inhibition came out at 40%.

As for `O=C(NC(Cc1ccccc1)c1ccc(O)cc1)C(c1ccccc1)c1ccccc1` (stereo not given), in the experiment on Cricetinae gen. sp. [1], the Reduction is on record as 69%. The compound further returned an inhibition in experiment [2] of 95%.

Turning to `COc1ccc([C@H]2CCCC[C@H]2NC(=O)C(c2ccccc2)c2ccccc2)cc1`, the Reduction in the experiment with Cricetinae gen. sp. [1] is 20%. In experiment [2], this compound had an inhibition of 77%. In experiment [3], this compound returned an IC50 of 3000 nM.

In the case of `O=C(N[C@H]1CCCC[C@@H]1c1ccc(O)cc1)C(c1ccccc1)c1ccccc1`, the Reduction with Cricetinae gen. sp. [1] is reported as 0%. In experiment [2], this compound came in with an inhibition of 94%. The compound further gave an IC50 in experiment [3] of 600 nM.

Take `O=C(N[C@@H]1c2cc(O)ccc2CC[C@@H]1c1ccc(O)cc1)C(c1ccccc1)c1ccccc1`: the Reduction with Cricetinae gen. sp. [1] stood at 0%.

`O=C(N[C@H]1c2ccccc2CC[C@@H]1c1cccc(O)c1)C(c1ccccc1)c1ccccc1`: the Reduction with Cricetinae gen. sp. [1] came out at 0%. In addition, the inhibition in experiment [2] is 98%. This compound also gave an IC50 in experiment [3] of 700 nM.

Regarding `O=C(N[C@@H]1c2ccccc2C[C@@H]1c1ccc(O)cc1)C(c1ccccc1)c1ccccc1`, the IC50 amounted to 40 nM in experiment [4] and 100 nM in experiment [3]. In addition, the Reduction with Cricetinae gen. sp. [1] amounted to 91%; in the experiment with Cricetinae gen. sp. [5], 88%; in the experiment with Cricetinae gen. sp. [6] it was 73%. The compound further had an inhibition in experiment [2] of 99%.

In the experiment with Cricetinae gen. sp. [1], `O=C(N[C@H]1c2ccc(O)cc2CC[C@@H]1c1ccccc1)C(c1ccccc1)c1ccccc1` showed a Reduction of 0%. Moreover, the inhibition in experiment [2] worked out at 92%. In experiment [3], this compound displayed an IC50 of 900 nM.

As to `O=C(N[C@H]1c2ccccc2CC[C@@H]1c1ccccc1O)C(c1ccccc1)c1ccccc1`, in the experiment with Cricetinae gen. sp. [1], the Reduction was 0%.

Turning to `COc1ccc([C@H]2CCc3ccc(OC)cc3[C@H]2NC(=O)C(c2ccccc2)c2ccccc2)cc1`, in the experiment on Cricetinae gen. sp. [1], the Reduction amounted to 0%.

As for `O=C(NC1CCCc2ccccc21)C(c1ccccc1)c1ccccc1` (stereo not given), the inhibition in experiment [7] came out at 37%.

As to `O=C(N[C@H]1c2ccccc2CC[C@@H]1c1ccc(O)cc1)C(c1ccccc1)c1ccccc1`, the Reduction with Cricetinae gen. sp. [1] is recorded as 58%. In experiment [2], this compound gave an inhibition of 93%. For the same compound, in experiment [3], it took 700 nM to reach half-maximal inhibition (IC50).

With `COc1ccc([C@H]2CCc3ccccc3[C@@H]2NC(=O)C(c2ccccc2)c2ccccc2)cc1`, the Reduction in the experiment on Cricetinae gen. sp. [1] was determined as 0%.

In the experiment with Cricetinae gen. sp. [1], `COc1cccc([C@H]2CCc3ccccc3[C@H]2NC(=O)C(c2ccccc2)c2ccccc2)c1` showed a Reduction of 0%.

`O=C(N[C@@H]1c2cccc(O)c2CC[C@@H]1c1ccccc1)C(c1ccccc1)c1ccccc1` displayed a Reduction with Cricetinae gen. sp. [1] of 0%.

`O=C(N[C@H]1c2ccccc2C[C@H]1c1ccc(O)cc1)C(c1ccccc1)c1ccccc1` yielded an IC50 in experiment [4] of 13000 nM. For the same compound, the Reduction with Cricetinae gen. sp. [5] and in the experiment with Cricetinae gen. sp. [6] was 0% throughout.

In the experiment with Cricetinae gen. sp. [1], `O=C(NC(Cc1ccc(O)cc1)c1cccc(O)c1)C(c1ccccc1)c1ccccc1` (stereo not given) had a Reduction of 0%.

`COc1ccc([C@H]2CCCC[C@@H]2NC(=O)C(c2ccccc2)c2ccccc2)cc1` registered a Reduction in the experiment with Cricetinae gen. sp. [1] of 0%. In addition, in experiment [2], the inhibition came to 100%. The same compound displayed an IC50 in experiment [3] of 100 nM.

Turning to `O=C(N[C@@H]1c2ccccc2CCC[C@@H]1c1ccc(O)cc1)C(c1ccccc1)c1ccccc1`, the Reduction in the experiment on Cricetinae gen. sp. [1] came to 0%.

Turning to `O=C(N[C@@H]1c2c(O)cccc2CC[C@@H]1c1ccccc1)C(c1ccccc1)c1ccccc1`, in the experiment on Cricetinae gen. sp. [1], the Reduction was 20%.

Regarding `Nc1ccc([C@H]2CCc3ccccc3[C@H]2NC(=O)C(c2ccccc2)c2ccccc2)cc1`, the Reduction with Cricetinae gen. sp. [1] is 57%.

In the case of `O=C(N[C@H]1c2ccccc2CCC[C@@H]1c1ccc(O)cc1)C(c1ccccc1)c1ccccc1`, the Reduction in the experiment with Cricetinae gen. sp. [1] was 61%.

`O=C(N[C@@H]1c2cc(O)ccc2CC[C@@H]1c1ccccc1)C(c1ccccc1)c1ccccc1` gave a Reduction in the experiment on Cricetinae gen. sp. [1] of 38%. The same compound showed an inhibition in experiment [2] of 84%. In addition, the IC50 in experiment [3] was found to be 2400 nM.

Consider `O=C(N[C@@H]1c2ccc(O)cc2CC[C@@H]1c1ccccc1)C(c1ccccc1)c1ccccc1`, for which the Reduction in the experiment with Cricetinae gen. sp. [1] worked out at 45%. In experiment [2], this compound returned an inhibition of 87%. In experiment [3], this compound displayed an IC50 of 900 nM.
